For series [1], the target named is Integrin alpha-IIb/beta-3 (Homo sapiens, UniProt P05106+P08514).
Description: Displacement of [3H]UR-3189 from integrin alpha2b beta3 receptor in resting human platelet
Series [2] in a line: Stability of the compound in human microsomes. Particulars: read-out: Stability. Format: ADME, Microsome.

pKi: −log10 of the molar value.

Sequence of Integrin alpha-IIb/beta-3 (P05106 27-788 limits assumed): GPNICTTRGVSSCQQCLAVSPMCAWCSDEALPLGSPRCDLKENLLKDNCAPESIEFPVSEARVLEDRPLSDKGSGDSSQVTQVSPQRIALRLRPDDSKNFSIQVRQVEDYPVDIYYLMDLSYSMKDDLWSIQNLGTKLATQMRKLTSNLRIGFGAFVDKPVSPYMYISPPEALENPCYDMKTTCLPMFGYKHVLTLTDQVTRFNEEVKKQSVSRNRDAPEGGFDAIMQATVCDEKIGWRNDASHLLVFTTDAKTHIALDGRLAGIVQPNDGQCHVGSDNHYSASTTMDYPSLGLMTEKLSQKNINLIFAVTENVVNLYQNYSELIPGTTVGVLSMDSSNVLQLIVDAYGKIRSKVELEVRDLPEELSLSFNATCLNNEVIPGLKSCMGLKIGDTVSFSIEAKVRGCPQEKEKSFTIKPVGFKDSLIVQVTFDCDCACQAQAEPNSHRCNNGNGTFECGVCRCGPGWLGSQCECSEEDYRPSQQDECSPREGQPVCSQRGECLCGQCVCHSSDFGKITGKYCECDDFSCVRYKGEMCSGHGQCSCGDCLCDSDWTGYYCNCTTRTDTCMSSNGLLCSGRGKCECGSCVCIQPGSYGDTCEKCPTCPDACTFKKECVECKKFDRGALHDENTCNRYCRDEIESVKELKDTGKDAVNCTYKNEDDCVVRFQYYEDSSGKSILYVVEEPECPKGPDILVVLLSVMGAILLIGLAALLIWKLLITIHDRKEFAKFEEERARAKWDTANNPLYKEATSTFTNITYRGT
Sequence of Integrin alpha-IIb/beta-3 (P08514 32-887 limits assumed): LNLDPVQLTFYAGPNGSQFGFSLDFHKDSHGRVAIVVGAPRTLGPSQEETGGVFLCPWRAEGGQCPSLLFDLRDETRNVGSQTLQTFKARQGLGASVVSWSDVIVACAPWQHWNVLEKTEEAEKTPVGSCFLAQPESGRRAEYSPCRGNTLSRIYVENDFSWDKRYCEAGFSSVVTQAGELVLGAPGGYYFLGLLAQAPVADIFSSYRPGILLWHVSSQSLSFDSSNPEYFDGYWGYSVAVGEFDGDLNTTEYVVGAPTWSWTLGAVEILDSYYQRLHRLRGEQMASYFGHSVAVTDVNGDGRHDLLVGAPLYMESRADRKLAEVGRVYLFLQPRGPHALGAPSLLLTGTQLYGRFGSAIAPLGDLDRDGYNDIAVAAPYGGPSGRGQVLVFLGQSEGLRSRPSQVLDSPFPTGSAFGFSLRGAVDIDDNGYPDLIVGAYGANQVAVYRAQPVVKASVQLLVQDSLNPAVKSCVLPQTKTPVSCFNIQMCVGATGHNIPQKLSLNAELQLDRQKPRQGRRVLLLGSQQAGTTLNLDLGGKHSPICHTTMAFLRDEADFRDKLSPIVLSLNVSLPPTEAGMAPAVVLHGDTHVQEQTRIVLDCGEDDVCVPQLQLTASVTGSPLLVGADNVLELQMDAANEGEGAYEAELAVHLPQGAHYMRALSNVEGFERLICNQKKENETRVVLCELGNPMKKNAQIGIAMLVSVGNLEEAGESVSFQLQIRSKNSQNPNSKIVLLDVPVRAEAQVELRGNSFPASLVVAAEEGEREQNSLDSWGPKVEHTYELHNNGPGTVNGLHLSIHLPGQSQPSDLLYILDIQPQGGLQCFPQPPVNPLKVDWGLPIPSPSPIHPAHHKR
Sequence of Integrin alpha-IIb/beta-3 (P08514 891-1039 limits assumed): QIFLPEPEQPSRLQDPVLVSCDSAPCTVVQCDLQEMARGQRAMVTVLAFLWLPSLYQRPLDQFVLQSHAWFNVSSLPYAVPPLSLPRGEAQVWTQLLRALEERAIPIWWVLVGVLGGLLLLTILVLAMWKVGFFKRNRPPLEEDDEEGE

`[H]/N=C(\N)c1ccc(C(=O)N[C@@H](Cc2ccc([N+](=O)[O-])cc2)C(=O)N2CCc3nn(CC(=O)O)cc3C2)cc1` had a pKi in series [1] of more than 9.00.

Turning to `NCC(=O)Nc1cncc(-c2nn3c(=O)cc(N4CCNCC4)nc3s2)c1` [ZALUNFIBAN], the microsomal CLint in series [2] turned out to be 23.2 µL/min/mg.

These data come from ChEMBL document CHEMBL4049383, “Emergence of Small-Molecule Non-RGD-Mimetic Inhibitors for RGD Integrins” (J Med Chem, 2017).
